The numbers were not newly measured in patent US20240252632A1, “METHODS OF TREATING LUNG CANCER WITH A PD-1 AXIS BINDING ANTAGONIST, AN ANTIMETABOLITE, AND A PLATINUM AGENT” (Genentech, Inc., priority 2018, published 2024), which cites them from elsewhere.

SMILES strings stand for the structures.

On to `[NH3+][Pt-2]1([NH3+])[O]C(=O)C2(CCC2)C(=O)[O]1` [Carboplatin, platinum, diammine[1,1-cyclobutanedicarboxylato(2-)-O,O′]—, (SP-4-2)], for which the “solubility in ethanol, acetone, and dimethylacetamide” value (ethanol, acetone, dimethylacetamide) was “virtually insoluble”. The solubility in water entry (water) was “approximately 14 mg/mL”.
